From the METLIN SMRT retention time set (Domingo-Almenara et al. 2019)

Assay: gradient 5% acetonitrile 3 min, to 50% in 2 min, to 85% in 15 min, held 3 min, 100 µL/min
Conditions: column: Zorbax Extend-C18 2.1 x 50 mm; eluents: water / acetonitrile, 0.1% formic acid
Procedure, shortened: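 A Zorbax Extend-C18 column (2.1 × 50 mm, 1.8 μm) run at 100 μL/min with water and acetonitrile, both containing 0.1% formic acid, separated mixtures of ~100 pure standards. The HPLC was coupled to a quadrupole time-of-flight mass spectrometer operated in positive and negative ionization mode, with dead and dwell volumes of 40 μL and 900 μL. Each retention time was taken from a computationally picked adduct peak that was then manually inspected.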

Row | SMILES | RP-LC retention time [s]
1 | CCNC(=O)CCc1nc2ccccc2n(CC(=O)Nc2ccc(OC)c(OC)c2)c1=O | 658
2 | CCCNC(=O)c1ncn2c1C(=O)N(C1CC1)C(C)(C(=O)NCc1ccc(F)cc1)C2 (stereo not drawn) | 692
3 | Nc1cc(C2CCN(C(=O)Cc3c(F)cccc3Cl)CC2)no1 | 723
4 | O=C(c1cn(-c2cc(N3CCSCC3)ncn2)cn1)N1CCCCC1 | 789
5 | O=C(NC1CCN(c2cc(-c3ccccc3)[nH]n2)C1)c1ccc2cc[nH]c2c1 (stereo not drawn) | 792
6 | Cc1ccc(-c2cn3c(CC(=O)NCc4ccco4)csc3n2)cc1C | 750
7 | CCc1ccc2nc(NCc3ccccn3)sc2c1 | 621
8 | CC(C)(C)NC(=O)CCc1ccc2nc(-c3ccccc3)[nH]c2c1 | 632
9 | Cc1noc(COC2CCN(C(=O)NCCc3ccccc3)CC2)n1 | 694
10 | COc1ccc(NC(=O)c2c(O)c3cccnc3n(-c3ccc(OC)cc3)c2=O)cc1 | 800
11 | Cc1ccc2c(Nc3ccc(S(N)(=O)=O)cc3)c(C(=O)N3CCC(C)CC3)cnc2n1 | 582
12 | COc1cc(OC)cc(C(=O)N(C)CCc2noc(-c3ccc(C(=O)N4CCCC4)cc3)n2)c1 | 759
13 | CCOC1CCN(C(=O)c2ccc(F)cc2)CC1 | 760
14 | CC(=O)c1cccc(N2C(=O)COc3ccc(Br)cc3C2C(=O)NC2CCCC2)c1 (stereo not drawn) | 913
15 | Cc1ccc(-n2c(N3CCCC(C(=O)NCCCc4ccccc4)C3)nc3ccsc3c2=O)cc1 (stereo not drawn) | 987
16 | CN1C(=O)c2cccn2CC1CNS(=O)(=O)c1cccc2nsnc12 (stereo not drawn) | 680
17 | CC(C)(CO)NC(=O)Cc1ccc(NS(=O)(=O)/C=C/c2ccccc2)cc1 | 686
18 | Cc1ccc(NC(=O)c2cccc([N+](=O)[O-])c2O)c([N+](=O)[O-])c1 | 982
19 | CC(C)c1nnc(-c2ccc(S(=O)(=O)N3CCN(C(C)C)CC3)o2)o1 | 608
20 | COC(=O)C1=CN(c2cccc(Cl)c2)c2ccc(F)cc2S1(=O)=O | 895
21 | CC(C)(Oc1ccc(Cl)cc1)C(=O)Nc1c(-c2ccc(F)cc2)nc2ccccn12 | 821
22 | Cc1ccc(NC(=O)N2CCc3cn(C)c4cccc(c34)C2)c(C)c1 | 980

Row | SMILES | RP-LC retention time [s]
23 | CC(C)Cc1ccc(S(=O)(=O)N2CCC3(CC2)CCC(O)(CN2CCCC2)CC3)cc1 | 786
24 | Cc1ccc(Cl)cc1N1C(=O)CN(S(C)(=O)=O)CC1(C)C(=O)NCc1ccc(F)cc1 (stereo not drawn) | 814
25 | CC(C)c1ccc2c(c1)-c1ccccc1S(=O)(=O)N2CC(=O)NCCCN1CCOCC1 | 694
26 | O=C(C1CCN(c2nc3ccc(-c4cccnc4)nc3s2)CC1)N1CCCCC1 | 652
27 | Cc1cccc(NC(=O)CC(=O)Nc2ccc3nc4n(c(=O)c3c2)CCCCC4)n1 | 624
28 | CCCNC(=O)C1CCN(c2ccc(SCC(=O)Nc3ccccc3OCC)nn2)CC1 | 621
29 | CCC(C(=O)NCCCN1CCCC1=O)n1c2ccccc2c2cnn(C)c(=O)c21 (stereo not drawn) | 692
30 | COc1cccc(CNC(=O)C2(C)CCN(C(=O)Nc3cc(OC)c(OC)c(OC)c3)CC2)c1 | 732
31 | Cc1ccccc1NC(=O)c1cc(C(C)C)n2nccc2n1 | 1090
32 | O=C(CN1c2ccc(F)cc2-c2ccccc2S1(=O)=O)N1CCCCC1 | 915
33 | Cc1ccc2c(c1)C(=O)NC1(CCN(C(=O)c3ccc(F)c(Cl)c3)CC1)N2C | 919
34 | CC1=C(c2ccc(Cl)cc2)S(=O)(=O)N=C1N1CCCN(C(=O)C(C)(C)C)CC1 | 900
35 | Cc1ccc(NC(=O)c2ncn3c2C(=O)N(C2CC2)C(C)(C(=O)NC2CCCC2)C3)c(Cl)c1 (stereo not drawn) | 864
36 | O=C(Cn1ccc2sccc2c1=O)N1CCN(c2ccccc2)CC1 | 724
37 | O=C(Nc1ccc(SCc2nnc(-c3ccccc3)o2)cc1)C1CC1 | 870
38 | Cc1ccc(CNC(=O)c2ccc3cnn(Cc4ccc(F)cc4)c3c2)o1 | 916
39 | COCCNC(=O)CSc1nccnc1Oc1ccc(C)cc1 | 798
40 | CCc1cccc(C)c1NC(=O)Cn1nc(N2CCOCC2)c2ccccc2c1=O | 809
41 | O=S(=O)(Cc1ccc(F)cc1)NCC1(c2ccc(F)cc2)CC1 | 700
42 | O=C(CC1CCCC1)Nc1nc(-c2cccc3ccccc23)cs1 | 1220
43 | O=C(Cn1cnc(-c2noc(-c3ccc(F)cc3)n2)c1)NCc1ccc(F)cc1 | 857
44 | Cc1nc(-c2cccc(NC(=O)CCn3nnc4ccccc4c3=O)c2)cs1 | 739

Row | SMILES | RP-LC retention time [s]
45 | Cc1cc(NC(=O)C2CCCN(c3ccc(-c4ccc(Cl)cc4)nn3)C2)on1 (stereo not drawn) | 685
46 | CCCNc1cc(N2CCCC(CCC(=O)N3CCN(CC(C)C)CC3)C2)ncn1 (stereo not drawn) | 552
47 | CN(CC1CCOCC1)C(=O)Nc1cccc(Cl)c1 | 750
48 | O=C(NC1CCCC1)c1nc(C(=O)N2CCN(c3cccc(Cl)c3)CC2)cs1 | 1020
49 | CCNC(=O)N1CC(C)Oc2ccccc21 (stereo not drawn) | 762
50 | O=C(Cn1cc(-c2ccccc2)c2ncn(C3CC3)c(=O)c21)Nc1ccc2c(c1)OCO2 | 826
51 | O=C(NCc1ccc(Cl)cc1)C1CCN(C(=O)c2ncn3c2COC(c2ccccc2)C3)CC1 (stereo not drawn) | 802
52 | COCCN1C(=O)[C@H]2CN(Cc3ccc(C(C)C)cc3)C[C@H]2C1=O | 674
53 | CCOC(=O)c1nnn(-c2ccccc2OCC)c1C(=O)OCC | 970
54 | NS(=O)(=O)c1ccc(NC(=O)C2(c3cc(-c4ccco4)on3)CC2)cc1 | 745
55 | COc1ccc(NC(=O)N2CCC(n3c(-c4ccco4)nc4cccnc43)C2)cc1 (stereo not drawn) | 708
56 | CCCNC(=O)Cn1cnc2sc(C(=O)N3CC(C)CC(C)C3)c(C)c2c1=O (stereo not drawn) | 779
57 | CCOc1ccc(NC(=O)C2CCCN2S(=O)(=O)c2cc3c(cc2Cl)NC(=O)CO3)cc1 (stereo not drawn) | 785
58 | Cc1cc(C)cc(NC(=O)N2CC(n3cnnc3-c3ccccc3)C2)c1 | 722
59 | O=C(Cc1ccc(F)cc1)Nc1nnc(C2CC(=O)N(c3ccc(Cl)cc3)C2)o1 (stereo not drawn) | 789
60 | Cc1nc(-c2ccncc2)nc2c1CC(=O)N2C1CCCCC1 | 716
61 | CCc1nc(OCC(=O)Nc2ccc(Cl)cc2F)c2ccccc2n1 | 899
62 | CN1CCN(CCNC(=O)c2nn(-c3ccc(Cl)cc3)c3c(=O)n(C)cnc23)CC1 | 602
63 | Cc1cc2c(=O)n(CC(=O)NCc3ccc(Cl)cc3)c3cccnc3n2n1 | 714
64 | COc1ccc(-c2noc(C3CCCN3C(=O)Nc3cc(Cl)ccc3OC)n2)cc1 (stereo not drawn) | 1130
65 | Cc1ccn2c(NC(=O)CC(C)(C)C)c(-c3ccc(F)cc3)nc2c1 | 669
66 | Cn1nc(C2CC2)nc1C1CN(C(=O)Cc2ccc(S(C)(=O)=O)cc2)C1 | 611

Row | SMILES | RP-LC retention time [s]
67 | COc1nc2ccccc2nc1N1CCCC(C(=O)Nc2ccc(Br)cc2)C1 (stereo not drawn) | 1250
68 | CC(C)n1cc2cc(C(=O)N(C)CCc3ccncc3)sc2c1 | 709
69 | CCCn1c(C)cnc1C1CN(S(=O)(=O)c2ccc(F)c(F)c2)C1 | 695
70 | O=C(Cc1csc2nc(-c3ccccc3)cn12)Nc1cccc(Br)c1 | 906
71 | COc1ccc(NC(=O)c2cn(C)nc2S(=O)(=O)N2CCSCC2)cc1 | 848
72 | Cc1ccc(C)c(-c2cn3ccn(-c4ccc(F)cc4)c(=O)c3n2)c1 | 895
73 | CCOc1ccccc1NC(=O)CSc1cc(N2CCN(c3ccccc3OC)CC2)ncn1 | 1160
74 | CCc1ccc(CNC(=O)C2CCN(Cc3cn(CC)c4ccc(OC)cc34)CC2)cc1 | 761
75 | CCOc1ccc(NC(=O)N2CCN(Cc3nc4ccc(C)cc4o3)CC2)cc1 | 733
76 | O=C(Nc1nc(-c2cccnc2)cs1)C1CN(c2nc3ccccc3s2)C1 | 592
77 | CN(c1ccccc1)S(=O)(=O)c1ccc(C(=O)Nc2nccs2)cc1 | 807
78 | Cc1ccc(CN2CC(Oc3ccc(-c4noc(C5CCOCC5)n4)cc3)C2)o1 | 686
79 | COc1cc([C@H]2Oc3cc([C@@H]4Oc5cc(O)cc(O)c5C(=O)[C@@H]4O)ccc3O[C@@H]2CO)ccc1O | 754
80 | COc1ccc(-c2ncc3c(n2)CCN(S(=O)(=O)c2ccc(C)c(Cl)c2)C3)cc1 | 1180
81 | COc1ccc(OC)c(S(=O)(=O)NCC2(C)CCOCC2)c1 | 686
82 | CCc1cc(C(=O)Nc2cc(OC)ccc2OC)nc2cc(-c3ccco3)nn12 | 1260
83 | Fc1cccc(-c2nc(-c3cn(Cc4ccccc4)nn3)no2)c1 | 1020
84 | CCn1c(=O)c2ccn(CC(=O)Nc3ccc(Cl)cc3)c2n(CC)c1=O | 747
85 | Cc1cc(F)ccc1NC(=O)c1c(O)c2cccnc2n(-c2cccc(F)c2)c1=O | 1250
86 | O=S(=O)(Cc1ccc(Cl)cc1)c1nc2ccccc2nc1N1CCOCC1 | 756
87 | O=C(CN1CCC(c2nnc(-c3ccc(F)cc3)o2)CC1)Nc1cccnc1 | 539
88 | CCn1cnc(S(=O)(=O)N2CCC(C(=O)NCc3ccc(N(C)C)cc3)CC2)c1 | 567
